Test results from US11566007B2, “Ras inhibitors” (Revolution Medicines, Inc., priority 2019, dated 2023).
pEC50, pIC50: −log10 of the molar value.

Tests used:
KRAS G12D = KRAS G12D (Homo sapiens (Human), UniProt P01116+P62937, G12D); test: Ras-Raf (BRAF RBD) disruption / FRET / MOA assay, KRAS G12D; format: biochemical; conditions: Ras-Raf disruption/FRET/MOA assay; class symbols; read-out: KRAS G12D FRET data IC50
Outline: (§1)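 Ternary complex formation (Ras–compound–cyclophilin A) displacing BRAF RBD, monitored by TR-FRET. Three hours at 25° C with compound (top 30 μM final), then 1.5 h with the labelled antibodies. Lower ratio than DMSO indicates disruption; IC50 reported.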

KRAS G13D = KRAS G13D (Homo sapiens (Human), UniProt P01116+P62937, G13D); test: Ras-Raf (BRAF RBD) disruption / FRET / MOA assay, KRAS G13D; format: biochemical; conditions: read-out: IC50* KRAS G13D FRET data
KRAS G13D, sequence (P01116-2 other isoform, or with tags, fused parts or gaps G13D): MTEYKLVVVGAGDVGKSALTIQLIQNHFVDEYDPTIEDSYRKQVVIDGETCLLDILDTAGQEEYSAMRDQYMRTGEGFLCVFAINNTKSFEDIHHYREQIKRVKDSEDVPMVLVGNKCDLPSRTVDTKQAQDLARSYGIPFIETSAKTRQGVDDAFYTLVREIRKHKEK
KRAS G13D, sequence (P62937 whole entry): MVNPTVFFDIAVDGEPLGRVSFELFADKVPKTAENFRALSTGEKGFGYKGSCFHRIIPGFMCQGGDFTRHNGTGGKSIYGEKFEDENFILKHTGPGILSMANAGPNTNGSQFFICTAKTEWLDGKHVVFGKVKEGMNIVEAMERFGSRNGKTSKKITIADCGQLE
Outline: as §1

NRAS G12C = NRAS G12C (Homo sapiens (Human), UniProt P01111+P62937, G12C); test: Ras-Raf (BRAF RBD) disruption / FRET / MOA assay, NRAS G12C; format: biochemical; conditions: read-out: IC50* NRAS G12C FRET data
NRAS G12C, sequence (P01111 whole entry G12C): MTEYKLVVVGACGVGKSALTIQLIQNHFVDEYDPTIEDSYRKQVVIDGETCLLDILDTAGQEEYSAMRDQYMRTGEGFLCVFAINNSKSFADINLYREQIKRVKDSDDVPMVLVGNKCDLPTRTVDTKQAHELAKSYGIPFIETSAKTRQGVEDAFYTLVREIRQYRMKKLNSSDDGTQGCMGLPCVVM
NRAS G12C, sequence (P62937 whole entry): as the sequence (P62937 whole entry) above
Outline: as §1

KRAS G12V = KRAS G12V (Homo sapiens (Human), UniProt P01116+P62937, G12V); test: Ras-Raf (BRAF RBD) disruption / FRET / MOA assay, KRAS G12V; format: biochemical; conditions: read-out: IC50* KRAS G12V FRET data
KRAS G12V, sequence (P01116-2 other isoform, or with tags, fused parts or gaps G12V): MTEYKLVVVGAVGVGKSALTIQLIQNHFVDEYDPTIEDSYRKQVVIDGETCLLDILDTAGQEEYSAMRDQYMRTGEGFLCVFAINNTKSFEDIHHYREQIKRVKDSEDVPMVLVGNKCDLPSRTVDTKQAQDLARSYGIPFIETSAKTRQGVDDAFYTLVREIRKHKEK
KRAS G12V, sequence (P62937 whole entry): as the sequence (P62937 whole entry) above
Outline: as §1

KRAS WT = KRAS WT (Homo sapiens (Human), UniProt P01116+P62937); test: Ras-Raf (BRAF RBD) disruption / FRET / MOA assay, KRAS WT; format: biochemical; conditions: read-out: IC50* KRAS WT FRET data
KRAS WT, sequence (P01116-2 other isoform, or with tags, fused parts or gaps): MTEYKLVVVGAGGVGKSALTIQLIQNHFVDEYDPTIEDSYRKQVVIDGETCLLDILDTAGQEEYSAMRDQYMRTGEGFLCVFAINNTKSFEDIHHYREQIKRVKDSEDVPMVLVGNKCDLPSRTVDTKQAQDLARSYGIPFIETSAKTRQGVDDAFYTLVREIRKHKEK
KRAS WT, sequence (P62937 whole entry): as the sequence (P62937 whole entry) above
Outline: as §1

K-Ras G13C = K-Ras G13C (Homo sapiens (Human), UniProt P01116+P62937, G13C); test: Ras-Raf (BRAF RBD) disruption / FRET / MOA assay, KRAS G13C; format: biochemical; conditions: KRAS G13C; Ras-Raf disruption/FRET/MOA assay; read-out: IC50* KRAS G13C FRET data
K-Ras G13C, sequence (P01116-2 other isoform, or with tags, fused parts or gaps G13C): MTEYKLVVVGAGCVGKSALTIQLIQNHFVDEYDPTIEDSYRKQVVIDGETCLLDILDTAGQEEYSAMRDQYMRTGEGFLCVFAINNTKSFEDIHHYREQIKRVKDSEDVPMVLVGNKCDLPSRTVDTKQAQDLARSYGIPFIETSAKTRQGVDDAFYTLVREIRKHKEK
K-Ras G13C, sequence (P62937 whole entry): as the sequence (P62937 whole entry) above
Outline: as §1

NCI-H358 (K-Ras G12C) = test: CellTiter-Glo cell viability assay, NCI-H358; format: cell-based, human; conditions: Homo sapiens, NCI-H358, 120 h, NCI-H358, 5-day treatment; class symbols; read-out: Additional H358 Cell Viability assay data (K-Ras G12C, IC50)
Outline: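 Viability measured by CellTiter-Glo luminescence on day 5 following direct addition of compound to plated cells. Values expressed as percent of mean DMSO signal; curves fitted with a four-parameter logistic model.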

K-Ras G12C = K-Ras G12C (Homo sapiens (Human), UniProt P01116+P62937, G12C); test: Ras-Raf (BRAF RBD) disruption / FRET / MOA assay, KRAS G12C; format: biochemical; conditions: KRAS G12C; Ras-Raf disruption/FRET/MOA assay; read-out: IC50* KRAS G12C FRET data
K-Ras G12C, sequence (P01116-2 other isoform, or with tags, fused parts or gaps G12C): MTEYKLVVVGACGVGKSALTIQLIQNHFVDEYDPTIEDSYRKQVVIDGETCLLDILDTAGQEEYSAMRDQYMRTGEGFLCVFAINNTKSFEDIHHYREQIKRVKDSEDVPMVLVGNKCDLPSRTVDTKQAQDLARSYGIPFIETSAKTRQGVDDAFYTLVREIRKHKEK
K-Ras G12C, sequence (P62937 whole entry): as the sequence (P62937 whole entry) above
Outline: as §1

[1] = test system: NCI-H358 cells (K-Ras G12C); test: Potency assay: pERK in NCI-H358 cells; format: cell-based, human; conditions: Homo sapiens, NCI-H358; H358 KRAS G12C; read-out: pERK EC50
Outline: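 4 h cpd, 37 °C; 10-pt 3-fold series, 10 mM DMSO top stock, duplicates. Readout pERK: AlphaLISA SureFire Ultra or In-Cell Western (IR-800CW secondary, DRAQ5 DNA stain). IC50, 4-PL fit vs log conc.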

KRAS G12S = KRAS G12S (Homo sapiens (Human), UniProt P01116+P62937, G12S); test: Ras-Raf (BRAF RBD) disruption / FRET / MOA assay, KRAS G12S; format: biochemical; conditions: Ras-Raf disruption/FRET/MOA assay; class symbols; read-out: KRAS G12S FRET data IC50
KRAS G12S, sequence (P01116-2 other isoform, or with tags, fused parts or gaps G12S): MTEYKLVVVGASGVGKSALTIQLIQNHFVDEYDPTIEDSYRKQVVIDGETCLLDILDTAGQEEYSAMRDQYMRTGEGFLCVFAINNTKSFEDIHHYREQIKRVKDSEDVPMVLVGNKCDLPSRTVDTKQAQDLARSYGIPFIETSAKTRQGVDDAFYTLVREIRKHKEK
KRAS G12S, sequence (P62937 whole entry): as the sequence (P62937 whole entry) above
Outline: as §1

KRAS G12D, sequence (P01116-2 other isoform, or with tags, fused parts or gaps G12D): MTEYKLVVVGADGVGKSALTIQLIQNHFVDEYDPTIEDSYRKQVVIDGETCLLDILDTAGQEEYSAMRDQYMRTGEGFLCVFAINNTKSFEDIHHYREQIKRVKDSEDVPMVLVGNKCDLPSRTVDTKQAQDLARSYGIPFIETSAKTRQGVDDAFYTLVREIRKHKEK
KRAS G12D, sequence (P62937 whole entry): as the sequence (P62937 whole entry) above

| pIC50 (KRAS G12D) | pIC50 (KRAS G13D) | pIC50 (NRAS G12C) | pIC50 (KRAS G12V) | pIC50 (KRAS WT) | pIC50 (K-Ras G13C) | pIC50 (NCI-H358 (K-Ras G12C)) | pIC50 (K-Ras G12C) | pIC50 (KRAS G12S) | Structure (SMILES) | pEC50 [1] |
| --- | --- | --- | --- | --- | --- | --- | --- | --- | --- | --- |
| 5.00 to 6.00 | 5.00 to 6.00 | > 8.00 | 5.00 to 6.00 | 5.00 to 6.00 | 7.00 to 8.00 | > 8.00 | > 8.00 | 5.00 to 6.00 | CCn1c(-c2cncnc2)c2c3cc(ncc31)-c1cc(O)cc(c1)C[C@H](NC(=O)[C@H](C(C)C)N(C)C(=O)[C@H]1CCN(C(=O)C#CCN(C)C)C1)C(=O)N1CCC[C@H](N1)C(=O)OCC(C)(C)C2 [Example A108] | > 5.30 |
| < 5.00 | < 5.00 | 6.00 to 7.00 | < 5.00 | 5.00 to 6.00 | 6.00 to 7.00 | 7.00 to 8.00 | 6.00 to 7.00 | 5.00 to 6.00 | C=CC(=O)N1CC[C@@]2(CCN([C@H](C(=O)N[C@H]3Cc4cccc(c4)-c4ccc5c(c4)c(c(-c4cccnc4[C@H](C)OC)n5CC)CC(C)(C)COC(=O)[C@@H]4CCCN(N4)C3=O)C(C)C)C2=O)C1 (atropisomer, axis not shown) [Example A471] | > 5.30 |
| < 5.00 | < 5.00 | < 5.00 | < 5.00 | < 5.00 | < 5.00 | < 6.00 | < 5.00 | < 5.00 | C=CC(=O)N1CC[C@H](C(=O)N(C)[C@H](C(=O)N[C@@H]2C(=O)N3CCC[C@H](N3)C(=O)OCC(C)(C)Cc3c(-c4cncnc4)n(CC)c4ccc(cc34)-c3cccc(c3)[C@H]2OC)C(C)C)C1 [Example A273] | – |
| < 5.00 | < 5.00 | < 5.00 | < 5.00 | < 5.00 | < 5.00 | 6.00 to 7.00 | < 5.00 | < 5.00 | C=CC(=O)N1CC[C@H](C(=O)N(C)[C@H](C(=O)N[C@H]2Cc3cccc(c3)-c3ccc4c(c3)c(c(-c3ccccc3[C@H](C)OC)n4CC)CC(C)(C)COC(=O)[C@@H]3CCCN(N3)C2=O)C(C)C)C1 (atropisomer, axis not shown) [Example A114] | – |
| < 5.00 | < 5.00 | < 5.00 | < 5.00 | < 5.00 | < 5.00 | < 6.00 | < 5.00 | < 5.00 | CO[C@@H](C)c1ncccc1-c1nc2ccc3cn2c1CC(C)(C)COC(=O)[C@@H]1CCCN(N1)C(=O)[C@@H](NC(=O)[C@H](C(C)C)N(C)C(=O)[C@H]1CCN(C(=O)C#CC(C)(C)N(C)C)C1)Cc1cccc-3c1 [Example A311] | – |
| < 5.00 | < 5.00 | < 5.00 | < 5.00 | < 5.00 | < 5.00 | < 6.00 | < 5.00 | < 5.00 | C=CC(=O)N1CC[C@H](C(=O)N(C)[C@H](C(=O)NC2C[C@@H]3CN(CCO3)c3ccc4c(c3)c(c(-c3cccnc3[C@H](C)OC)n4CC)CC(C)(C)COC(=O)[C@@H]3CCCN(N3)C2=O)C(C)C)C1 (stereo partly shown) [Example A312] | – |
| < 5.00 | < 5.00 | < 5.00 | < 5.00 | < 5.00 | < 5.00 | < 6.00 | < 5.00 | < 5.00 | CC#CC(=O)N1CC[C@H](C(=O)N(C)[C@H](C(=O)N[C@H]2Cc3nc(cs3)-c3ccc4c(c3)c(c(-c3cccnc3[C@H](C)OC)n4C(C)=O)CC(C)(C)COC(=O)[C@@H]3CCCN(N3)C2=O)C(C)C)C1 [Example A293] | – |
| < 5.00 | < 5.00 | 6.00 to 7.00 | < 5.00 | < 5.00 | < 5.00 | < 6.00 | 6.00 to 7.00 | < 5.00 | COCc1ncccc1-c1nc2ccc3cc2n1CC(C)(C)COC(=O)[C@@H]1CCCN(N1)C(=O)[C@@H](NC(=O)[C@H](C(C)C)N(C)C(=O)[C@H]1CCN(C(=O)C#CCN2CCOCC2)C1)Cc1cc(O)cc-3c1 [Example A188] | – |
| < 5.00 | < 5.00 | < 5.00 | < 5.00 | < 5.00 | < 5.00 | < 6.00 | < 5.00 | < 5.00 | C=CC(=O)N1CC[C@H](C(=O)N(C)[C@H](C(=O)N[C@H]2Cc3nc(cs3)-c3ccc4c(c3)c(c(-c3cccnc3[C@H](C)OC)n4CC)CC(C)(C)CCC[C@@H]3CCCN(N3)C2=O)C(C)C)C1 (atropisomer, axis not shown) [Example A288] | – |

| Structure (SMILES) | pIC50 (KRAS G12D) | pIC50 (KRAS G13D) | pIC50 (NRAS G12C) | pIC50 (KRAS G12V) | pIC50 (KRAS WT) | pIC50 (K-Ras G13C) | pIC50 (NCI-H358 (K-Ras G12C)) | pIC50 (K-Ras G12C) | pIC50 (KRAS G12S) | pEC50 [1] |
| --- | --- | --- | --- | --- | --- | --- | --- | --- | --- | --- |
| CCn1c(-c2cccnc2COC)c2c3cc(ccc31)-c1cc(O)cc(c1)C[C@H](NC(=O)[C@H](C(C)C)N(C)C(=O)[C@H]1C[C@@H](C)N(C(=O)C#CCN(C)C)C1)C(=O)N1CCC[C@H](N1)C(=O)OCC(C)(C)C2 [Example A175] | 5.00 to 6.00 | 5.00 to 6.00 | > 8.00 | 5.00 to 6.00 | 5.00 to 6.00 | > 8.00 | > 8.00 | > 8.00 | 5.00 to 6.00 | > 5.30 |
| CC#CC(=O)N1CC[C@@H](C(=O)N(C)[C@H](C(=O)N[C@H]2Cc3cccc(c3)-c3ccc4c(c3)c(c(-c3cccnc3[C@H](C)OC)n4CC)CC(C)(C)COC(=O)[C@@H]3CCCN(N3)C2=O)C(C)C)C1 (atropisomer, axis not shown) [Example A487] | 5.00 to 6.00 | 5.00 to 6.00 | 6.00 to 7.00 | 5.00 to 6.00 | 5.00 to 6.00 | 6.00 to 7.00 | 7.00 to 8.00 | 6.00 to 7.00 | 5.00 to 6.00 | > 5.30 |
| C=CC(=O)N1CC(OCC(C(=O)N[C@H]2Cc3cc(cc(C(F)F)c3)-c3ccc4c(c3)c(c(-c3cccnc3[C@H](C)OC)n4CC)CC(C)(C)COC(=O)[C@@H]3CCCN(N3)C2=O)C(C)C)C1 (mixture of isomers) [Example A450] | < 5.00 | < 5.00 | < 5.00 | < 5.00 | < 5.00 | < 5.00 | < 6.00 | < 5.00 | < 5.00 | – |
| C=CC(=O)N1CC[C@H](C(=O)N(C2CC2)[C@H](C(=O)N[C@H]2Cc3cccc(c3)-c3ccc4c(c3)c(c(-c3cccnc3[C@H](C)OC)n4CC)CC(C)(C)COC(=O)[C@@H]3CCCN(N3)C2=O)C(C)C)C1 (atropisomer, axis not shown) [Example A398] | < 5.00 | < 5.00 | 5.00 to 6.00 | 5.00 to 6.00 | 5.00 to 6.00 | 5.00 to 6.00 | 6.00 to 7.00 | 5.00 to 6.00 | < 5.00 | – |
| C=CC(=O)N1CC[C@H](C(=O)N(C)[C@H](C(=O)N[C@H]2CN(C)C(=O)Cc3ccc4c(c3)c(c(-c3cccnc3COC)n4CC)CC(C)(C)COC(=O)[C@@H]3CCCN(N3)C2=O)C(C)C)C1 [Example A239] | < 5.00 | < 5.00 | < 5.00 | < 5.00 | < 5.00 | < 5.00 | < 6.00 | < 5.00 | < 5.00 | – |
| C=CC(=O)N1CCC(C(=O)N(C)[C@H](C(=O)N[C@H]2Cc3cc(O)cc(c3)-c3ccc4c(c3)c(c(-c3ccccc3CCOC)n4CC)CC(C)(C)c3coc(n3)[C@@H]3CCCN(N3)C2=O)C(C)C)C1 (single isomer, unassigned) [Example A231] | < 5.00 | < 5.00 | < 5.00 | < 5.00 | < 5.00 | < 5.00 | < 6.00 | < 5.00 | < 5.00 | – |
| C=CC(=O)N1CC[C@H](C(=O)N(C)[C@H](C(=O)N[C@H]2Cc3cccc(c3)-c3ccc4c(c3)c(c(-c3cccnc3[C@H](C)OC)n4CC)CC(C)(C)COC(=O)[C@@H]3CCCN(N3)C2=O)C(C)C)[C@@H]1C (atropisomer, axis not shown) [Example A480] | < 5.00 | < 5.00 | 5.00 to 6.00 | < 5.00 | < 5.00 | 5.00 to 6.00 | < 6.00 | 5.00 to 6.00 | < 5.00 | – |
| C=CC(=O)N1CC(OCC(C(=O)N[C@H]2Cc3cccc(c3)-c3ccc4c(c3)c(c(-c3cccnc3[C@H](C)OC)n4CC)CC(C)(C)COC(=O)[C@@H]3CCCN(N3)C2=O)C(C)C)C1 (mixture of isomers) [Example A484] | < 5.00 | < 5.00 | 5.00 to 6.00 | < 5.00 | < 5.00 | 5.00 to 6.00 | 6.00 to 7.00 | 6.00 to 7.00 | < 5.00 | – |
